# Target: T1, RORc ligand binding domain (Homo sapiens, UniProt P51449)
# T1 construct: host or cells: E. coli
# T1 sequence (P51449 269-508 limits assumed): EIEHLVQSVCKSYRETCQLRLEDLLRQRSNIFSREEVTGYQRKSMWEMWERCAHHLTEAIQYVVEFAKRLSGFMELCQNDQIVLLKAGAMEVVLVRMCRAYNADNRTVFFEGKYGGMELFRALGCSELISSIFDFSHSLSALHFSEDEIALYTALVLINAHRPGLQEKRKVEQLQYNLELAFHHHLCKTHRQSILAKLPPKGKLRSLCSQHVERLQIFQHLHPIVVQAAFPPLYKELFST
# Test: In Vitro RORc Ligand Binding Assay
# Settings: radioligand 25-[3H]hydroxycholesterol 6 nM; 0.6 ug/mL RORc receptor; 3 h at 25° C.; read-out: IC50 values (micromolar) for RORc affinity
# Method: This assay was used to determine a compound's potency in inhibiting activity of RORc by determining, Kiapp, IC50, or percent inhibition values.
# On day of the assay, 100 uL of 0.05% CHAPS (in deionized H2O) was added to all wells of the GFB Unifilter plate and allowed soak for 1 h. A wash buffer of 50 mM HEPES (pH 7.4), 150 mM NaCl, and 5 mM MgCl2 was prepared to wash the filter plate. To prepare an assay buffer, BSA was added to the wash buffer to reach 0.01% and DTT was added to reach 1 mM.
# The 20× compound stocks were diluted in DMSO with Assay Buffer 4-fold to reach 5× the final test concentration in 25% DMSO (10 uL compound+30 uL Assay Buffer). Solutions were mixed by aspiration several times with a pipette set on 50 uL volume. For the assay, 10 uL of 5× compound stock solutions in 25% DMSO were added to the assay plate in duplicate.
# For two point screening, 10 mM stock compound solutions were diluted in DMSO to obtain 200 uM (20× the high test concentration) and then diluted 10-fold further to reach 20 uM (20× the low test concentration). The 20× stocks were diluted 4-fold with Assay Buffer (10 uL compound+30 uL Assay Buffer) to reach 5× the test concentrations (50 uM and 5 uM) and 10 uL were added to two assay plates for the duplicate wells. With each concentration tested on 2 plates, each set of 80 compounds used 4 assay plates (1 uM and 10 uM, with n=2).
# For 25-hydroxycholesterol in 25% DMSO/75% Assay Buffer; 10 uL per well was used for NSB samples. Wells for Total Binding and No Receptor sample determination contained 10 uL of 25% DMSO/75% Assay Buffer per well.
# Radioligand (25-[^3H]hydroxycholesterol) Preparation
# Added 20 uL to all wells to reach 6 nM final in the assay.
# Stock receptor solution was diluted in assay buffer to obtain 1.5 ug/mL in Assay Buffer. 20 uL was added to all wells. For No R samples, 20 uL Assay Buffer was substituted for receptor solution.
# Assay plates were 96-well polypropylene V-bottom plates. 10 uL of 5× compound in 25% DMSO/75% Assay Buffer was added to Test wells. 10 uL of 25% DMSO/75% Assay Buffer was added to Total Binding or No Receptor wells. 10 uL of 5 uM 25-hydroxycholesterol in 25% DMSO/75% Assay Buffer was added to NSB wells. […] 20 uL of 1.5 ug/mL RORc receptor was added to wells (or 40 uL Assay Buffer to No R wells). Following addition to the wells, the plates were incubated 3 h at 25° C.
# Using a Packard Filtermate Harvester, the filter plates were washed 4 times following transfer of the incubated samples. Plates were dry-filtered completely (2 h at 50° C. or overnight at room temperature). 50 uL Microscint 0 was added to all wells and read on Topcount protocol Inverted.
# Final concentrations were as follows: 50 mM HEPES buffer (pH 7.4); 150 mM NaCl; 1 mM DTT; 5 mM MgCl2; 0.01% BSA; 5% DMSO; 0.6 ug/mL RORc receptor; 6 nM 25-[^3H]hydroxycholesterol. For NSB wells, 1 uM 25-hydroxycholesterol was also present.
row,Structure (SMILES),IC50 [µM]
1,"CC(C)CN(Cc1ccc(-c2cccc(S(C)(=O)=O)c2)cc1)S(=O)(=O)Cc1ccccc1 [Compound 1, N-Isobutyl-N-(3′-methanesulfonyl-biphenyl-4-ylmethyl)-C-phenyl-methanesulfonamide]",0.365
2,"CS(=O)(=O)c1cccc(-c2ccc(CN(Cc3ccc(F)cc3Cl)S(=O)(=O)Cc3ccccc3)cc2)c1 [Compound 2, N-(2-Chloro-4-fluoro-benzyl)-N-(3′-methanesulfonyl-biphenyl-4-ylmethyl)-C-phenyl-methanesulfonamide]",2.8
3,"Cc1nn(C)c(C)c1-c1ccc(CN(CC(C)C)S(=O)(=O)Cc2ccccc2)cc1 [Compound 3, N-Isobutyl-C-phenyl-N-[4-(1,3,5-trimethyl-1H-pyrazol-4-yl)-benzyl]-methanesulfonamide]",1.7
4,"CC(C)CN(Cc1ccc(-c2ccc(C(=O)N(C)C)cc2)cc1)S(=O)(=O)Cc1ccccc1 [Compound 5, 4′-[(Isobutyl-phenylmethanesulfonyl-amino)-methyl]-biphenyl-4-carboxylic acid dimethylamide]",0.963
5,"CNS(=O)(=O)c1ccc(-c2ccc(CN(CC(C)C)S(=O)(=O)Cc3ccccc3)cc2)cc1 [Compound 9, 4′-[(Isobutyl-phenylmethanesulfonyl-amino)-methyl]-biphenyl-4-sulfonic acid methylamide]",0.065
6,"Cc1n[nH]c(C)c1-c1ccc(CN(CC(C)C)S(=O)(=O)Cc2ccccc2)cc1 [Compound 10, N-[4-(3,5-Dimethyl-1H-pyrazol-4-yl)-benzyl]-N-isobutyl-C-phenyl-methanesulfonamide]",2.8
7,"CC(C)CN([C@H](C)c1ccc(-c2ccc(C(N)=O)cc2)cc1)S(=O)(=O)Cc1ccccc1 [Compound 14, 4′-[(R)-1-(Isobutyl-phenylmethanesulfonyl-amino)-ethyl]-biphenyl-4-carboxylic acid amide]",0.128
8,"CC(C)CN([C@H](C)c1ccc(-c2ccc(NS(C)(=O)=O)cc2)cc1)S(=O)(=O)Cc1ccccc1 [Compound 15, N-Isobutyl-N-[(R)-1-(4′-methanesulfonylamino-biphenyl-4-yl)-ethyl]-C-phenyl-methanesulfonamide]",0.696
9,"CC(C)CN([C@@H](C)c1ccc(-c2ccc(C(N)=O)cc2)cc1)S(=O)(=O)Cc1ccccc1 [Compound 17, 4′-[(S)-1-(Isobutyl-phenylmethanesulfonyl-amino)-ethyl]-biphenyl-4-carboxylic acid amide]",0.154
10,"CC(C)CN([C@@H](C)c1ccc(-c2ccc(S(C)(=O)=O)cc2)cc1)S(=O)(=O)Cc1ccccc1 [Compound 18, N-Isobutyl-N-[(S)-1-(4′-methanesulfonyl-biphenyl-4-yl)-ethyl]-C-phenyl-methanesulfonamide]",0.168
11,"CC(C)CN([C@@H](C)c1ccc(-c2cccc(S(C)(=O)=O)c2)cc1)S(=O)(=O)Cc1ccccc1 [Compound 19, N-Isobutyl-N-[(S)-1-(3′-methanesulfonyl-biphenyl-4-yl)-ethyl]-C-phenyl-methanesulfonamide]",0.691
12,"CC(C)CN([C@@H](C)c1ccc(-c2ccc(NS(C)(=O)=O)cc2)cc1)S(=O)(=O)Cc1ccccc1 [Compound 20, N-Isobutyl-N-[(S)-1-(4′-methanesulfonylamino-biphenyl-4-yl)-ethyl]-C-phenyl-methanesulfonamide]",0.251
13,"CC(C)CN([C@H](C)c1ccc(-c2ccc(S(C)(=O)=O)cc2)cc1)S(=O)(=O)Cc1ccccc1 [Compound 21, N-Isobutyl-N-[(R)-1-(4′-methanesulfonyl-biphenyl-4-yl)-ethyl]-C-phenyl-methanesulfonamide]",2.9
14,"CC(C)CN(Cc1ccc(-c2ccc(S(C)(=O)=O)cc2)cc1F)S(=O)(=O)Cc1ccccc1 [Compound 22, N-(3-Fluoro-4′-methanesulfonyl-biphenyl-4-ylmethyl)-N-isobutyl-C-phenyl-methanesulfonamide]",0.019
15,"O=S(=O)(Cc1ccccc1)N(Cc1ccc(-c2ccncc2)cc1F)CC(F)(F)F [Compound 23, N-(2-Fluoro-4-pyridin-4-yl-benzyl)-C-phenyl-N-(2,2,2-trifluoro-ethyl)-methanesulfonamide]",0.282

# Source: patent publication US20150105429A1, “BENZYL SULFONAMIDE DERIVATIVES AS RORC MODULATORS” (Genentech, Inc., priority 2011, published 2015)
